Results published in the NIST ThermoML archive (doi:10.1021/je900359y).
Numbers after ± are expanded uncertainties.

Assay: mn = molality of the nth substance listed, in mol/kg
Conditions: Liquid, Constant-volume piezometry

[Br-].[NH4+] [ammonium bromide] + N
mass density [kg/m3]
Conditions | 303.15 K | 313.15 K | 323.15 K | 333.15 K | 343.15 K | 353.15 K | 363.15 K | 373.15 K
10000 kPa, m1 = 1.143 | 675.9 ± 2.7 | 661.3 ± 2.6 | 646.8 ± 2.6 | 630.2 ± 2.5 | 612.8 ± 2.5 | 594.5 ± 2.4 | 576 ± 2.3 | –
10000 kPa, m1 = 2.601 | 750.8 ± 3 | 737.8 ± 3 | 724.3 ± 2.9 | 709.5 ± 2.8 | 693.7 ± 2.8 | 676.6 ± 2.7 | 659.3 ± 2.6 | –
10000 kPa, m1 = 4.381 | 829 ± 3.3 | 817.3 ± 3.3 | 805 ± 3.2 | 791.1 ± 3.2 | 778.3 ± 3.1 | 765.5 ± 3.1 | 748.7 ± 3 | 737.7 ± 3
10000 kPa, m1 = 7.359 | 939.1 ± 3.8 | 926.8 ± 3.7 | 914.3 ± 3.7 | 903.1 ± 3.6 | 891.2 ± 3.6 | 878.6 ± 3.5 | 866.4 ± 3.5 | 854.6 ± 3.4
10000 kPa, m1 = 10.35 | 1028.9 ± 4.1 | 1017 ± 4.1 | 1005.2 ± 4 | 994.4 ± 4 | 983.9 ± 3.9 | 973 ± 3.9 | 961.1 ± 3.9 | 950.1 ± 3.8
10000 kPa, m1 = 15.17 | 1126.2 ± 4.5 | 1116.9 ± 4.5 | 1105.9 ± 4.4 | 1096 ± 4.4 | 1086.6 ± 4.4 | – | 1067.8 ± 4.3 | 1057.7 ± 4.3
15000 kPa, m1 = 1.143 | 679.5 ± 2.7 | 665.1 ± 2.7 | 651.2 ± 2.6 | 635.4 ± 2.5 | 618.5 ± 2.5 | 601.3 ± 2.4 | 583.7 ± 2.3 | 569.5 ± 2.3
15000 kPa, m1 = 2.601 | 754.5 ± 3 | 741.4 ± 3 | 727.7 ± 2.9 | 714 ± 2.9 | 698.1 ± 2.8 | 681.9 ± 2.7 | 665.4 ± 2.7 | 652.4 ± 2.6
15000 kPa, m1 = 4.381 | 832.7 ± 3.3 | 820.9 ± 3.3 | 808.9 ± 3.2 | 795.1 ± 3.2 | 782.6 ± 3.1 | 769.6 ± 3.1 | 754.3 ± 3 | 742.9 ± 3
15000 kPa, m1 = 7.359 | 942.7 ± 3.8 | 929.8 ± 3.7 | 917.4 ± 3.7 | 906.7 ± 3.6 | 894.7 ± 3.6 | 882.5 ± 3.5 | 870.2 ± 3.5 | 858.5 ± 3.5
15000 kPa, m1 = 10.35 | 1032.2 ± 4.1 | 1020.3 ± 4.1 | 1008.3 ± 4 | 997.8 ± 4 | 987.4 ± 4 | 976.5 ± 3.9 | 965.6 ± 3.9 | 954.3 ± 3.8
15000 kPa, m1 = 15.17 | 1128.1 ± 4.5 | 1118.8 ± 4.5 | 1107.8 ± 4.4 | 1098.2 ± 4.4 | 1089.1 ± 4.4 | – | 1070.1 ± 4.3 | 1060.3 ± 4.3
20000 kPa, m1 = 1.143 | 682.7 ± 2.7 | 668.9 ± 2.7 | 655.4 ± 2.6 | 640.3 ± 2.6 | 624.1 ± 2.5 | 607.9 ± 2.4 | 590.9 ± 2.4 | 577.4 ± 2.3
20000 kPa, m1 = 2.601 | 758 ± 3 | 745 ± 3 | 731.4 ± 2.9 | 718.3 ± 2.9 | 702.6 ± 2.8 | 687.1 ± 2.8 | 671.2 ± 2.7 | 658.4 ± 2.6
20000 kPa, m1 = 4.381 | 836.1 ± 3.4 | 824.2 ± 3.3 | 812.6 ± 3.3 | 799.1 ± 3.2 | 786.7 ± 3.2 | 773.8 ± 3.1 | 759.5 ± 3.1 | 748 ± 3
20000 kPa, m1 = 7.359 | 945.8 ± 3.8 | 932.8 ± 3.7 | 920.3 ± 3.7 | 909.8 ± 3.7 | 898.2 ± 3.6 | 886.2 ± 3.6 | 873.8 ± 3.5 | 862.2 ± 3.5
20000 kPa, m1 = 10.35 | 1034.9 ± 4.2 | 1023.2 ± 4.1 | 1011.2 ± 4.1 | 1001.2 ± 4 | 991.3 ± 4 | 979.8 ± 3.9 | 969 ± 3.9 | 958 ± 3.9
20000 kPa, m1 = 15.17 | 1130.1 ± 4.5 | 1120.4 ± 4.5 | 1109.7 ± 4.5 | 1100.3 ± 4.4 | 1091.2 ± 4.4 | – | 1072.4 ± 4.3 | 1062.6 ± 4.3
25000 kPa, m1 = 1.143 | 686.3 ± 2.8 | 672.6 ± 2.7 | 659.7 ± 2.6 | 645.1 ± 2.6 | 629.9 ± 2.5 | 614.6 ± 2.5 | 598.2 ± 2.4 | 585.2 ± 2.3
25000 kPa, m1 = 2.601 | 761.3 ± 3.1 | 748.6 ± 3 | 734.9 ± 2.9 | 722.5 ± 2.9 | 707.2 ± 2.8 | 692 ± 2.8 | 677.1 ± 2.7 | 664.3 ± 2.7
25000 kPa, m1 = 4.381 | 839.1 ± 3.4 | 827.6 ± 3.3 | 816.1 ± 3.3 | 803 ± 3.2 | 790.7 ± 3.2 | 778.1 ± 3.1 | 764.4 ± 3.1 | 752.9 ± 3
25000 kPa, m1 = 7.359 | 948.9 ± 3.8 | 935.5 ± 3.8 | 923 ± 3.7 | 912.7 ± 3.7 | 901.6 ± 3.6 | 889.7 ± 3.6 | 877.4 ± 3.5 | 865.9 ± 3.5
25000 kPa, m1 = 10.35 | 1037.4 ± 4.2 | 1025.9 ± 4.1 | 1014.1 ± 4.1 | 1004 ± 4 | 993.6 ± 4 | 983 ± 4 | 972.5 ± 3.9 | 961.3 ± 3.9
25000 kPa, m1 = 15.17 | 1132 ± 4.5 | 1122 ± 4.5 | 1111.5 ± 4.5 | 1102.2 ± 4.4 | 1093.3 ± 4.4 | – | 1074.8 ± 4.3 | 1065.1 ± 4.3
30000 kPa, m1 = 1.143 | 689.5 ± 2.8 | 676.3 ± 2.7 | 663.8 ± 2.7 | 649.5 ± 2.6 | 635.4 ± 2.6 | 621.2 ± 2.5 | 605.2 ± 2.4 | 592.7 ± 2.4
30000 kPa, m1 = 2.601 | 764.4 ± 3.1 | 752.1 ± 3 | 738.7 ± 3 | 726.3 ± 2.9 | 711.7 ± 2.9 | 697 ± 2.8 | 682.6 ± 2.7 | 670 ± 2.7
30000 kPa, m1 = 4.381 | 842.1 ± 3.4 | 830.7 ± 3.3 | 819.4 ± 3.3 | 807.1 ± 3.2 | 794.2 ± 3.2 | 782.2 ± 3.1 | 769 ± 3.1 | 757.6 ± 3
30000 kPa, m1 = 7.359 | 951.2 ± 3.8 | 938 ± 3.8 | 926 ± 3.7 | 915.6 ± 3.7 | 904.9 ± 3.6 | 893.2 ± 3.6 | 881.3 ± 3.5 | 870 ± 3.5
30000 kPa, m1 = 10.35 | 1039.8 ± 4.2 | 1028.6 ± 4.1 | 1016.7 ± 4.1 | 1006.9 ± 4 | 995.8 ± 4 | 986.6 ± 4 | 975.7 ± 3.9 | 964.7 ± 3.9
30000 kPa, m1 = 15.17 | 1134 ± 4.6 | 1123.6 ± 4.5 | 1113.4 ± 4.5 | 1104 ± 4.4 | 1095.4 ± 4.4 | – | 1076.8 ± 4.3 | 1067.1 ± 4.3
